Usually AUC(0-t) stands for the area under the concentration-time curve up to a stated or last time point. Read a low AUC(0-t) as low exposure. In general, Cmax refers to the peak of the concentration-time curve. As usually defined, the Tmax is the time from dosing to the highest level. What is called bioavailability is dose-corrected exposure relative to a reference, in per cent.

We go through one compound from paper PMC12501029, “Discovery of a CNS active GSK3 degrader using orthogonally reactive linker screening” (Nature Communications, 2025).

Series [1] has as its system GSK3β-HiBiT KI HEK293 cells. The series is described as follows: Multiplexed degradation and cell viability assay (Gly-Phe-AFC fluorescence). The format is cell-based, human. Conditions: up to 24 h and 1 μM (10 nM, 100 nM, 1 µM; 2, 4, 24 h). The protocol: For viability tests, GSK3β-HiBiT KI HEK293 cells were seeded onto white-opaque 96-well plates at a density of 2 × 10^4 cells per well. After 16 h, cells were treated with test compounds or DMSO with indicated concentrations for 2, 4 and 24 h. Thirty minutes before the end of treatment, 20 µL of reaction buffer containing Gly-Phe-A FC substrate (1:200 in cell culture media, Chem Cruz, sc506265) added to the each well and cells were returned to cell culture incubator. At the end of the treatment time, HiBiT lytic reagents were prepared according to the manufacturer's instructions (Promega) and 120 µL of reagent dispensed to each well. Fluorescence (viability) and luminescence (degradation) signals were measured by GloMAX discover plate reader (Promega) at the same time. Obtained data analysed using Excel and GraphPad Prism (v10.1.2) as previously described above.

The nature of series [2]: Discrete i.v./p.o. KH1 (24) PK study and brain penetration. The format is in vivo, female Balb/c mice. The source says:
Fifteen female mice of the Balb/c strain were obtained from Charles River Laboratories, UK. Animals were maintained under a 12-h light/12-h dark cycle, in Thoren mouse caging containing EC0 aspen bedding (DBM, UK), with 'Sizzlenest' and 'Rodent Rolls' nesting material (DBM). Enrichment materials included aspen chew sticks, cardboard houses, tunnels, swings, and sunflower seeds. All animals had ad libitum access to food (5LF2 Extruded Diet, IPS Ltd, UK) and tap water throughout. Temperature and relative humidity were maintained between 19 °C–24 °C and 45%–65%, respectively. All animals received a minimum of 10 days of acclimatisation prior to the start of the study.
The intravenous formulations for KH1 (24) were prepared by dissolving the compound in DMSO. This was then diluted with PEG400, followed by dropwise addition of sterile water to form a complete solution. The resulting formulations consisted of 5% DMSO, 40% PEG400, and 55% water, and contained KH1 (24) at a concentration of 0.1 mg/mL (for the PK study), or 1.0 mg/mL (for the PK/PD study), respectively.
The oral formulation for KH1 (24) was produced by vigorously mixing the compound with a sterile solution containing 0.5% hydroxypropylmethylcellulose in water, until a fine homogenous suspension was formed. The resulting formulation contained KH1 (24) at a concentration of 0.6 mg/mL. Dose formulations were prepared on the day of dosing, and animals were observed regularly after dose administration.
[…] Serial blood samples (10 µL per sample) were collected from the lateral tail vein of three intravenously-dosed mice and three orally-dosed mice at 5, 15 and 30 min, 1, 2, 4, 6, 8, and 24 h after dose administration. Blood samples were diluted into 90 µL of Milli‑Q ultrapure water. The remaining three intravenously-dosed animals were placed under terminal anaesthesia with isoflurane, 2 h after bolus administration. Blood was collected via cardiac puncture and the brains were removed. Two aliquots of 10 µL blood were each diluted into 90 µL of Milli-Q ultrapure water. All blood samples were stored at −20 °C prior to bioanalysis. The concentration of KH1 (24) in blood and brain was determined by UPLC-MS/MS.
Blood samples (10 µL) from study mice were diluted 1× with 90 µL of water immediately when the sample was taken. All calibration, quality control, blanks and double blank samples (all 100 µL volume) were mixed (vortexed) with 300 µL of LCMS grade acetonitrile to precipitate proteins.
For study samples, a volume (30 µL) was mixed (vortexed) with a volume (90 µL) of acetonitrile to precipitate proteins. After protein precipitation, all samples were centrifuged to pellet the proteins. Study samples in Micronics tubes were centrifuged using a Beckman Coutler Allegra C-12R Centrifuge for 10 min at 3750 rpm. All other samples in Eppendorf tubes were centrifuged using a Sigma SciQuip 1–14 centrifuge for 10 min (14,800 rpm/16,163 × g). Supernatant from study samples (80 µL) and calibration samples, QCs, blanks, and double blanks (200 µL) were then transferred to HPLC glass vials containing Milli-Q water (40 µL or 100 µL, respectively), ready for LCMS analysis.

In series [3] the target is T1, GSK3β (Mus musculus, UniProt Q9WV60).
T1 construct: measured KH1 (24) levels in plasma and brain at 4 h, as well as GSK3β abundance in liver and brain; tissue Charles River Laboratories, UK; host or cells: liver and brain of female Balb/c mice
The series is described as follows: KH1 (24) intravenous PK/PD study: GSK3β abundance in liver and brain (immunoblot). The format is in vivo, female Balb/c mice. Conditions: single 5 mg/kg i.v., 4 h, listed as KH1 (24). The protocol:
A fraction of frozen brain and liver samples from control (CNT) and compound KH1 (24) treated animals were-transferred into Precellys 2 mL ceramic bead tubes containing 1 mL SDS lysis buffer (50 mM Tris-HCl pH 7.4, 150 mM NaCl, 1 mM EGTA, 270 mM sucrose, 1% (v/v) Triton-X100) supplemented with complete EDTA-free protease inhibitor cocktail (Roche) and PhosSTOP phosphatase inhibitor tablets (Roche) and placed immediately on ice. Then samples were placed in Precellys Evolution tissue homogeniser (Bertin Technologies) and tissues were lysed at 0 °C for 3 × 30 s of cycles at 6800 rpm, with 30 s pause in between cycles. Samples were centrifugated at 4 °C, 2000 × g for 60 s to get rid of bubbles and supernatant was transferred into new tubes. Lysates were cleared via centrifugation at 16,000 × g, 4 °C for 20 min. Protein concentration was determined by BCA assay (Thermo Scientific) and immunoblotting performed as previously described above. Immunoblots were quantified using ImageLab (Bio-Rad) and band intensities were normalised to loading controls; anti-GAPDH or Ponceau S staining and fold changes for protein of interest were plotted.
For the PK/PD study for KH1 (24), three female Balb/c mice were given a bolus intravenous injection at a dose level of 5 mg/kg (5 mL/kg). […] The concentration of KH1 (24) in whole blood and brain tissue was determined via UPLC-MS/MS.

The mark [4] stands for this setting: female, Balb/c, mouse, whole blood, Oral, 3 mg/kg.

“Also recorded” adds a separate entry of the source. Where two headings read alike, the source gives them in different places.

T1 sequence (Q9WV60 whole entry): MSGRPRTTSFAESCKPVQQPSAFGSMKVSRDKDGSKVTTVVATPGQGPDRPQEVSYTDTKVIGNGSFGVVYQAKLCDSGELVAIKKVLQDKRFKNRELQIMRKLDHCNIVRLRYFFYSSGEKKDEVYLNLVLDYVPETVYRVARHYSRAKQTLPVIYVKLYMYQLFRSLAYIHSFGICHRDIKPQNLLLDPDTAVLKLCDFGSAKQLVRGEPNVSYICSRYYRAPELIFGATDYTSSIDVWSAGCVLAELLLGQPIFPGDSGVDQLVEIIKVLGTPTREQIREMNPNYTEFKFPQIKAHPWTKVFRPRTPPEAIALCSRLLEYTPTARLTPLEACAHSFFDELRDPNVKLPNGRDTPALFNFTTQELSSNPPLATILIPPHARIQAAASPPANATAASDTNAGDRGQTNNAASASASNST

Take `Cn1nc(N2CCC(=O)NC2=O)c2ccc(CN3CCN(Cc4ccc(-c5cn(-c6ccc(-c7cn8nccc(C(=O)Nc9cnccc9N9CCOCC9)c8n7)cc6)nn5)nc4)CC3)cc21` [compound 24]: the “impact on cell viability” value in series [1] is listed as “no impact on cell viability”. Also, the Half_Life in series [2] (IV, 0.37 mg/kg) came out at 2.3 h. The compound also yielded a Vss_obs in series [2] (IV, 0.37 mg/kg) of 2.0 L/kg. Further, the concentration at 2 h was 0.02 nM in series [2] (female, Balb/c, mouse, brain (unbound), intravenous, 0.37 mg/kg, predicted from brain concentration and measured free fraction, read-out: free concentration in brain); 16 nM in series [2] (female, Balb/c, mouse, brain, intravenous, 0.37 mg/kg i.v., 2 hours, read-out: Mean Brain Concentration); 0.4 to 0.9 nM in series [2] (female, Balb/c, mouse, plasma (unbound), intravenous, 2 h, 0.37 mg/kg, using predicted free fractions, read-out: unbound total plasma concentration); 88 nM in series [2] (female, Balb/c, mouse, whole blood, intravenous, 0.37 mg/kg i.v., 2 hours, read-out: Mean Blood Concentration). Moreover, in series [2] (female, Balb/c, mouse, brain / plasma (unbound), iv, 0.37 mg/kg i.v., 2 h, read-out: estimated Kp,uu), the Kp uu at 2 h was 0.05. Besides, the Kp at 2 h in series [2] (female, Balb/c, mouse, brain / whole blood, intravenous, 0.37 mg/kg i.v., 2 hours, read-out: Brain:Blood Ratio) was 0.18. For the same compound, the exposure AUC(0-t) was 572 ng·h/mL in series [2] (female, Balb/c, mouse, whole blood, iv, 0.37 mg/kg) and 82.2 ng·h/mL in series [2] (setting [4]). For the same compound, the clearance in series [2] (female, Balb/c, mouse, whole blood, iv, 0.37 mg/kg, read-out: Cl_obs) came out at 10 mL/min/kg. For the same compound, the Cmax in series [2] (setting [4]) was determined as 19 ng/mL. Besides, the Tmax in series [2] (setting [4]) is 2 h. Also, the bioavailability in series [2] (female, Balb/c, mouse, whole blood, Oral, 3 mg/kg, read-out: F (oral bioavailability)) turned out to be 1.6%. Besides, the “total mean plasma concentration” value in series [2] (for up to 4 h following i.v. dosing at 0.37 mg/kg) is reported as “above 65 nM”. Also, the “GSK3β abundance in liver” value in series [3] (p < 0.0001 vs control) is recorded as “almost complete removal of GSK3β; also recorded: almost completely remove GSK3β”. The “GSK3β abundance in brain” value in series [3] (p = 0.0159 vs control) is “significant degradation of GSK3β; also recorded: partial degradation”.
